Measured values as given in the supplement of paper PMC12370961.

What was measured:
Test in all cases: differential drug sensitivity score (dDSS) relative to sarcoma reference cohort mean DSS (DSS units (0-100 scale difference)); higher = more selective sensitivity than reference sarcomas
Conditions in all cases: exposure time: 72 h; concentration range: 10-10000 nM
[1] = tested on: ES-ZH007 (patient-derived Ewing sarcoma tumoroid)
Procedure: (§1)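 Drug response profiling of patient-derived Ewing sarcoma and CIC::DUX4 sarcoma tumoroid models (or cells tested directly after isolation from the tumor, 'direct'). The DSS is the normalised AUC (0-100); dDSS is the sample DSS minus the mean DSS of a 34-sarcoma reference cohort profiled in the same lab.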

[2] = tested on: CDS-ZH001 (patient-derived CIC-DUX4 sarcoma tumoroid)
Procedure: as §1

[3] = tested on: ES-ZH016 (patient-derived Ewing sarcoma tumoroid)
Procedure: as §1

[4] = tested on: CDS-ZH001-2 (patient-derived CIC-DUX4 sarcoma tumoroid)
Procedure: as §1

[5] = tested on: ES-ZH016 direct (Ewing sarcoma cells right after isolation)
Procedure: as §1

[6] = tested on: ES-ZH009 (patient-derived Ewing sarcoma tumoroid)
Procedure: as §1

[7] = tested on: ES-ZH008 (patient-derived Ewing sarcoma tumoroid)
Procedure: as §1

[8] = tested on: CDS-ZH002 (patient-derived CIC-DUX4 sarcoma tumoroid)
Procedure: as §1

[9] = tested on: ES-ZH004 (patient-derived Ewing sarcoma tumoroid)
Procedure: as §1

[10] = tested on: CDS-ZH002 direct (CIC-DUX4 sarcoma cells right after isolation)
Procedure: as §1

[11] = tested on: ES-ZH001 (patient-derived Ewing sarcoma tumoroid)
Procedure: as §1

[12] = tested on: CDS-ZH003 (patient-derived CIC-DUX4 sarcoma tumoroid)
Procedure: as §1

[13] = tested on: ES-ZH002 (patient-derived Ewing sarcoma tumoroid)
Procedure: as §1

| Compound | differential drug sensitivity score [1] | differential drug sensitivity score [2] | differential drug sensitivity score [3] | differential drug sensitivity score [4] | differential drug sensitivity score [5] | differential drug sensitivity score [6] | differential drug sensitivity score [7] | differential drug sensitivity score [8] | differential drug sensitivity score [9] | differential drug sensitivity score [10] | differential drug sensitivity score [11] | differential drug sensitivity score [12] | differential drug sensitivity score [13] |
| --- | --- | --- | --- | --- | --- | --- | --- | --- | --- | --- | --- | --- | --- |
| Fc1cc(-c2cccc3ncc(-c4cnn(C5CCNCC5)c4)nc23)cc(F)c1CN1CCOCC1 [BSK805] | 2.8 | 2.5 | 2.5 | 1.9 | 3 | 1.7 | 2.9 | -2.6 | 1.4 | 0.1 | -0.1 | 2.6 | 3.2 |
| Nc1nc(Cl)nc2c1ncn2[C@@H]1O[C@H](CO)[C@@H](O)[C@@H]1F [Clofarabine] | 19 | -12 | 15.7 | -1.8 | 8.4 | 3.9 | 3.6 | -4.3 | 4.8 | -4.3 | 17.7 | -4.8 | 20.2 |
